Measurements reported in patent publication US20240216359A1, “TREATMENT OF NEUROLOGICAL DISORDERS” (GMP BIOTECHNOLOGY LIMITED, priority 2021, published 2024).
Counter-ions that a name gives are not always drawn. Like-named read-outs stand apart in the source and are kept apart here.

Columns and labels:
[1] = Pilot double-blind crossover study in subjects with erectile dysfunction principally of psychogenic origin; type: in vivo, human
From the text: The primary efficacy parameter was each subject's assessment of the quality of the erection (graded on a 4-point scale). Secondary endpoints included frequency of erection, time from dosing to erection, duration of erection, and efficacy index (EI) for subjects achieving erections. Safety was primarily assessed via adverse events but cardiovascular effects were also investigated by monitoring blood pressure, heart rates, and percent oxygen saturation, prior to and following dosing. The integrity of the nasal mucosa of both nostrils was also evaluated prior to dosing, in the event of nasal symptoms, and at the end of each treatment visit.
Subjects made a total of six visits to the site, an initial screening and qualification visit, three treatment visits in Part 1, and two treatment visits in Part 2. Eligible subjects were randomized to a treatment sequence for Part I after the initial screening visit. Approximately 2 months later, subjects were randomized to a treatment sequence for Part 2.
At each treatment visit, a single dose of study treatment was administered. Efficacy was measured by means of ED questionnaires, which were completed by each subject. Following dosing, all subjects viewed sexually explicit videotapes and magazines for approximately 60 minutes. At the end of this period, the questionnaires were completed and patients were asked to rate the quality of the erection using a 4-point scale. The primary efficacy variable was the subject's global rating of erection, measured on a scale of 1 to 4: 1=increase in size but not hard; 2=hard, but not hard enough for vaginal penetration; 3=hard enough for vaginal penetration (but not completely hard); 4=completely hard.
Safety was measured by monitoring the subjects' blood pressure, heart rate and percent oxygen saturation (by pulse oximetry) before and after dosing (approximately 90 minutes after dosing commenced). In addition, the integrity of the subject's nasal mucosa was assessed prior to, and at the end of treatment. Information on adverse events was collected throughout the period of the study.
Drugs, Doses, and Regimens: At each treatment visit, subjects received one dose of study treatment.

[2] = 25° C.; cited from earlier work
[3] = adverse event rate, comparator; cited from earlier work
[4] = cited from earlier work

## CCCc1nn(C)c2c(=O)[nH]c(-c3cc(S(=O)(=O)N4CCN(C)CC4)ccc3OCC)nc12 [Viagra]
[1]; apomorphine HCl 0.25, 0.50, 1.0 mg, Viagra 50 mg
  difference in effectiveness in initiating erections between treatments and placebo: no statistically significant difference
[1]; human, in vivo
  serious adverse events: no serious adverse events
[1]; single dose
  subjects who achieved a satisfactory erection (as reported by the subject): around 30%
[1]; single dose, apomorphine 0.25-1.0 mg intranasal, Viagra 50 mg
  efficacy by Global Self Assessment Scores (grade 3 or 4): 67%

## O=C(O)CC(O)(CC(=O)O)C(=O)O [Citric Acid]
[2]
  pKa1: 3.128
  pKa2: 4.761
  pKa3: 6.396

## CN1CC(=O)N2[C@H](c3ccc4c(c3)OCO4)c3[nH]c4ccccc4c3C[C@@H]2C1=O [Cialis]
[3]
  Dizziness: 6.2%
  Dyspepsia: 7.7%
  Flushing: 4.2%
  Headache: 13.9%

## CN1CCc2cccc3c2[C@H]1Cc1ccc(O)c(O)c1-3 [Apomorphine Hydrochloride]
[4]; water at 80° C.
  volume of water in which one gram dissolves: about 20 ml
[4]; water
  volume of water in which one gram dissolves: 50 mL
